Activity calls are given as the source filed them. How the calls were made is not given here.
Molecular target: Peptidyl-prolyl cis-trans isomerase FKBP1A (Homo sapiens) (UniProt P62942)
Experiment: small-molecule binding to FKBP12 – biophysical, NMR detection (AID 608)
Conditions: purified FKBP12

Chain of Peptidyl-prolyl cis-trans isomerase FKBP1A (Homo sapiens) (P62942 whole entry, looked up): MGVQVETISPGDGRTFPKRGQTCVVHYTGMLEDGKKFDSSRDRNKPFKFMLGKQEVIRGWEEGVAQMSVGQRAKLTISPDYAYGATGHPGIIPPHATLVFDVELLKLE

| SMILES | Kd |
| --- | --- |
| CN(C)/C=N/S(=O)(=O)c1ccccc1 | > 4 mM (inactive) |
| COc1cc(-c2nnc(NC(C)=O)o2)cc(OC)c1OC | > 4 mM (inactive) |
| O=C1CSC(=O)N1CNc1ccccc1 | > 4 mM (inactive) |
| O=C(O)Cn1cc(C(F)(F)F)ccc1=O | > 4 mM (inactive) |
| Cc1cc(C(=O)NC2=NCCS2)cs1 | > 4 mM (inactive) |
| COC(=O)C[C@H]1C(C)(C)C(=O)[C@@H]2CC3=C(CC[C@]4(C)C3=CC(=O)O[C@H]4c3ccoc3)C1(C)C2=O | > 4 mM (inactive) |
| NC(N)=Nc1nc2ccccc2o1 | > 4 mM (inactive) |
| Oc1cc(O)cc(/C=C/c2ccccc2)c1 | > 4 mM (inactive) |
| O=C1CSC(=Nc2cc(Cl)ccc2Cl)N1 | > 4 mM (inactive) |
| CC(=O)N1CCc2ccccc2C1CC(=O)O (stereo not given) | > 4 mM (inactive) |
| CN(C)C(=O)CSc1nc(N)cc(=O)[nH]1 | > 4 mM (inactive) |
| NCc1ccc2sccc2c1 | > 4 mM (inactive) |
| COC(=O)C1COCCN1C(=O)CSc1ccc(C(C)C)cc1 (stereo not given) | 0.0003 mM |
| Cc1nnc(C)n1/N=C/c1cccs1 | > 4 mM (inactive) |
| CCOC(=O)c1csc(C)n1 | > 4 mM (inactive) |
| Cc1cc(NC(=O)c2cccc(S(C)(=O)=O)c2)no1 | > 4 mM (inactive) |
| COc1cc2c(cc1OC)Cc1cc(OC)c(OC)cc1Cc1cc(OC)c(OC)cc1C2 | > 4 mM (inactive) |
| COc1ccc2nc(N)sc2c1 | > 4 mM (inactive) |
| Cc1c(N=CN(C)C)c(=O)n(-c2ccccc2)n1C | > 4 mM (inactive) |
| Cc1onc(-c2c(F)cccc2Cl)c1C(N)=O | > 4 mM (inactive) |
| OCn1nnn(-c2ccccc2)c1=S | > 4 mM (inactive) |
| CN1C(=O)Cc2cc(S(N)(=O)=O)ccc21 | > 4 mM (inactive) |

| SMILES | Kd |
| --- | --- |
| COC(=O)c1cc2cc(N)ccc2s1 | > 4 mM (inactive) |
| NC1CS(=O)(=O)CC1O (stereo not given) | > 4 mM (inactive) |
| CCc1noc(C)c1C(=O)Nc1ncc(C)s1 | > 4 mM (inactive) |
| CN1CCN(C(=O)c2ccccc2C(=O)O)CC1 | > 4 mM (inactive) |
| OCc1ccc(-n2cccn2)cc1 | > 4 mM (inactive) |
| Nc1oncc1-c1ccccn1 | > 4 mM (inactive) |
| O=C1C=C(Nc2ccccc2O)c2ccccc2C1=O | > 4 mM (inactive) |
| O=C(c1ccccc1)c1ccccc1C(=O)N1CCCC1 | > 4 mM (inactive) |
| Cc1nnc(N2CCN(Cc3ccccc3)CC2)[nH]c1=O | > 4 mM (inactive) |
| CC(=O)O[C@H]1CCC2(C)C3=C(CCC2C1(C)C)[C@@]1(C)CC[C@@H](C(C)CCC=C(C)C)[C@]1(C)CC3 (stereo not given in full) | > 4 mM (inactive) |
| O=C(NCc1ccncc1)c1cccc(F)c1 | inactive |
| COc1ccc2cnn(-c3ccccc3)c(=O)c2c1OC | > 4 mM (inactive) |
| CCN1CCC(=NO)CC1 | > 4 mM (inactive) |
| S=c1[nH]cnc2sccc12 | > 4 mM (inactive) |
| CNC(=O)Nc1cccc(C(F)(F)F)c1 | > 4 mM (inactive) |
| Cc1ccc2c(c1)CC[C@H]1CC(=O)CC[C@]21C | > 4 mM (inactive) |
| COc1ccc(C)cc1-n1c(-c2ccncc2)n[nH]c1=S | > 4 mM (inactive) |
| Cc1nnc2ccc(N3CCCC3)nn12 | > 4 mM (inactive) |
| O=C1C(=O)N(CN2CCN(CCO)CC2)c2ccccc21 | > 4 mM (inactive) |
| O=C(O)CCC(=O)Nc1ccccc1F | > 4 mM (inactive) |
| COC(=O)C[C@H]1C(C)(C)C(=O)[C@@H]2CC3C4=CC(=O)O[C@@H](c5ccoc5)[C@]4(C)CCC3C1(C)C2=O (stereo not given in full) | > 4 mM (inactive) |
| CN(C)C(=O)Oc1cccc(-c2nnco2)c1 | > 4 mM (inactive) |

| SMILES | Kd |
| --- | --- |
| c1ccc(-c2nc3ccccc3nc2-c2ccccn2)nc1 | > 4 mM (inactive) |
| O=c1[nH]c(NCCO)nnc1Cc1ccccc1 | > 4 mM (inactive) |
| C[C@H]1C[C@@H](O)[C@]2(O)[C@@]13CC(=O)OC[C@@]2(C)[C@](C)(O)C(=O)C3 | > 4 mM (inactive) |
| Oc1ccc(-n2ccnc2)cc1 | > 4 mM (inactive) |
| c1coc(CNc2nc(-c3ccncc3)cs2)c1 | > 4 mM (inactive) |
| NC(Cc1c[nH]c2ccccc12)C(=O)O (stereo not given) | > 4 mM (inactive) |
| Cc1c(C(=O)NCc2ccccn2)oc2ccccc12 | > 4 mM (inactive) |
| Cc1nccc2c1[nH]c1ccccc12 | > 4 mM (inactive) |
| CS(=O)(=O)c1ccc2nc(N)sc2c1 | > 4 mM (inactive) |
| O=c1cc(-c2ccc(O)cc2)[nH]c(=S)[nH]1 | > 4 mM (inactive) |
| COC(=O)c1cc(-c2c[nH]c3ccccc23)n[nH]1 | > 4 mM (inactive) |
| Oc1ccc(C2SCCS2)cc1 | > 4 mM (inactive) |
| NCc1cccc2c1OCCCO2 | > 4 mM (inactive) |
| CSc1n[nH]c(NCc2ccccc2)n1 | > 4 mM (inactive) |
| Cc1occc1C(=O)NC1CCN(C)CC1 | > 4 mM (inactive) |
| CC(=O)Nc1ccc(C(=O)n2nc(C)cc2C)cc1 | > 4 mM (inactive) |
| O=C(Nn1cnnc1)c1csc2ccccc12 | > 4 mM (inactive) |
| C[C@@H]1CC[C@H]2[C@@H](C)C(=O)O[C@@H]3OC4(C)CC[C@@H]1[C@]32OO4 | > 4 mM (inactive) |
| CCOC(=O)CC1Sc2ccccc2NC1=O (stereo not given) | > 4 mM (inactive) |
| CC1CCN(S(=O)(=O)N(C)C)CC1 | > 4 mM (inactive) |
| Cc1cc(O)c2c(c1O)C(=O)c1c(O)cc(C)c(O)c1C2=O | > 4 mM (inactive) |
| Cc1ccc(CO)o1 | > 4 mM (inactive) |

| SMILES | Kd |
| --- | --- |
| O=C(NC1=NCCS1)c1ccc([N+](=O)[O-])cc1Cl | > 4 mM (inactive) |
| O=C1CSC2=NCCCN12 | > 4 mM (inactive) |
| Cc1ccc(/C=N/n2c(C)nnc2C)cc1 | > 4 mM (inactive) |
| Cc1cc(=O)n2[nH]c(N)nc2n1 | > 4 mM (inactive) |
| Nn1cnn2c(SCc3ccccc3)nnc12 | > 4 mM (inactive) |
| NCc1ccccc1N1CCCCC1 | > 4 mM (inactive) |
| O=C(O)C12CC3CC(CC(O)(C3)C1)C2 | > 4 mM (inactive) |
| Cc1csc2nc(N)nn12 | > 4 mM (inactive) |
| CCN1C[C@@]2(COC)C3[C@@H](OC)[C@H]4[C@@H]1[C@]3(C(OC)C[C@H]2O)C1C[C@@]2(O)[C@H](OC(=O)c3ccccc3)C1[C@]4(OC(C)=O)[C@@H](O)[C@@H]2OC (stereo not given in full) | > 4 mM (inactive) |
| C=C1C([C@]2(C)C(CC(=O)OC)[C@@](C)(COC(C)=O)OC(=O)C[C@@H]2OC(C)=O)[C@@H](OC=O)[C@H](OC(=O)C(O)C(C)CC)[C@@]2(C)[C@H](c3ccoc3)CC(=O)C12O (stereo not given in full) | > 4 mM (inactive) |
| Cc1cc(C)cc(C(=O)N2CCC(C(N)=O)CC2)c1 | > 4 mM (inactive) |
| CC(=O)Oc1ccc2c(c1)c(C(C)=O)c(C)n2C | > 4 mM (inactive) |
| Nc1nc2ccc(C(=O)O)cc2s1 | > 4 mM (inactive) |
| Cc1ccc(SC(C)c2nc(-c3ccncc3)no2)cc1 (stereo not given) | inactive |
| COc1cc(O)c(C(=O)c2ccccc2)cc1O | > 4 mM (inactive) |
| Nc1nc(SCc2ccc3c(c2)OCCO3)n[nH]1 | > 4 mM (inactive) |
| COc1ccc2[nH]cc(CN(C)C)c2c1 | > 4 mM (inactive) |
| COc1ccc(-c2cn[nH]c2N)c(OC)c1 | > 4 mM (inactive) |
| COc1cccc2c(=O)n(CC(N)=O)ccc12 | > 4 mM (inactive) |

— PubChem BioAssay AID608 (Sanford-Burnham Center for Chemical Genomics, 2007)
